Experimental data reported in patent US8952055B2 (priority 2008, dated 2015).
Read-outs that look alike come from different tables or passages of the source.

How the values were obtained:
[1] = system: influenza viruses (A/PR8/34/H1N1); test: microbe, parasite or virus in culture; details: H1N1|PR8, MDCK, read-out: EC50 Antiviral effect (50% effective concentration), viral infection-preventing effect
[2] = system: influenza viruses (A/PR8/34/H1N1); test: microbe, parasite or virus in culture; details: H1N1|PR8, MDCK, read-out: EC50 Antiviral effect (50% effective concentration), viral infectivity-inhibiting effect
[3] = system: influenza viruses (A/PR8/34/H1N1); test: Hemagglutination assay with chicken erythrocytes; assay type: cell-based, influenza virus; details: final concentrations 0 to 16 μmol/l, FIG. 3
[4] = system: influenza viruses (A/PR8/34/H1N1); details: for EC50: read-out: EC50 Antiviral effect (50% effective concentration), viral infection-preventing effect
[5] = system: canine kidney cultured cells (MDCK); details: read-out: CC50 Cytotoxicity (50% cytotoxic concentration); Table 3
[6] = system: influenza viruses (A/PR8/34/H1N1); details: for EC50: read-out: EC50 Antiviral effect (50% effective concentration), viral infectivity-inhibiting effect

Row | Structure (SMILES) | EC50 [1] | EC50 [2] | suppression of agglutination of the erythrocytes [3] | SI Selectivity (Selective Index = CC50/EC50) ([4]; Table 3, viral infection-preventing effect) | EC50 [4] | EC50 ([4]; Table 5, Example 3, comparison with zanamivir and oseltamivir phosphate) | CC50 [5] | SI Selectivity (Selective Index = CC50/EC50) ([6]; Table 4, viral infectivity-inhibiting effect) | EC50 ([6]; Table 4, sample incubated with A/PR8/34/H1N1 for 30 minutes before application to MDCK cells) | EC50 ([6]; Table 6, Example 3, comparison with zanamivir and oseltamivir phosphate)
1 | CC(=O)N[C@H]1[C@H]([C@H](O)[C@H](O)CO)OC(C(=O)O)=C[C@@H]1N=C(N)N [zanamivir] | 38 µM | 6.3 µM | – | – | – | – | – | – | – | –
2 | O=C(O[C@@H]1Cc2c(O)cc(O)cc2O[C@@H]1c1cc(O)c(O)c(O)c1)c1cc(O)c(O)c(O)c1 [EGCG, epigallocatechin gallate] | – | – | not observed | 2.91 | 94.6 µM | 94.7 µM | 276 µM | 703 | 391 nM | 391 nM
3 | CCOC(=O)C1=C[C@@H](OC(CC)CC)[C@H](NC(C)=O)[C@@H](N)C1 [oseltamivir phosphate] | 58.2 µM | 56.2 µM | – | – | – | – | – | – | – | –
